The text below walks through data of patent publication US6166062A, “Pharmaceutical compositions containing phospholipase inhibitor” (Shionogi & Co., Ltd., priority 1999, dated 2000).

In data set [1] the test system is human non-pancreatic secretory phospholipase A2 (sPLA2). As to conditions: as disclosed in JP-A 7-285933, EP 0 675 110 A1, U.S. Pat. No. 5,654,326; cited from earlier work.
The nature of data set [2]: collapse temperature of frozen solutions (freeze dry microscopy). Format: physicochemical. The text has this:
The term, "collapse temperature," describes the glass transition temperature for amorphous solids or eutectic temperature for crystalline solids. Collapse temperature is that temperature above which the product is not completely frozen. Freeze dry microscoscropy enables measurement of the temperature at which frozen solutions begin to lose their rigid structure during a sublimation process.

Data set [3] is described as follows: solubility of Compound (I) (statement). In kind it is physicochemical. The source says: Storage of a pharmaceutical composition of Compound (I) prepared by known methods may lead to degradation of its content and a coloring and a worsening of its reconstitution properties, especially in the case of injections to be dissolved before use. It is difficult to provide a pharmaceutical composition of Compound (I) which has good stability and a good reconstitution property, especially for injections of Compound (I) to be dissolved before use, after long storage at room temperature.

Each structure is given as a SMILES string.

On to `CCc1c(C(=O)C(N)=O)c2c(OCC(=O)[O-])cccc2n1Cc1ccccc1.[Na+]` [Compound (I), sodium [[3-(2-amino-1,2-dioxoethyl)-2-ethyl-1-(phenylmethyl)-1H-indol-4-yl]oxy]acetate], for which, in data set [1], the “inhibitor against human non-pancreatic secretory phospholipase A2” value is “inhibitor”. Besides, the figures for the collapse temperature result in data set [2] (after annealing) and in data set [2] (before annealing) were “about -13 °C” and “about -33 °C”, respectively. For the same molecule, in data set [3], the solubility entry is reported as “sparingly soluble”.
